The text below walks through data of US12162836B2, “N-acyl-{4-[(4-aryl-phenyl)sulfonylmethyl]piperidine} compounds and their therapeutic use” (Modern Biosciences Limited, priority 2019, dated 2024).

One series concerns the target CYP1A2 (Homo sapiens (Human), UniProt P05177). The experiment in a line: Human Cytochrome P450 Inhibition Assay (Bactosomes). In kind it is in vitro ADME. To be noted: recombinant enzyme. As to the method: (§1) The ability of test compounds to inhibit five of the most relevant cytochrome P450 enzymes was measured by determination of the activity of cytochrome P450 enzymes in recombinant cytochrome preparations, called Bactosomes (Cypex Ltd, Dundee, Scotland UK DD2 1 NH), in the presence of a specific probe substrate. Bactosomes are a highly efficient and cost-effective source of recombinant CYP450s which have a higher specific activity of enzyme compared to other sources, such as liver microsomes. […] The following CYP450 isoforms were assayed: CYP1A2, CYP2C9, CYP2C19, CYP2D6 and CYP3A4. The study of CYP450 inhibition potential in Bactosomes is accepted as a valuable model permitting rapid prediction of potential drug-drug interactions in vivo (see, e.g., Weaver et al., 2003).
(§2) Bactosomes were obtained from a commercial source (Cypex, Scotland, UK). Test compounds were incubated with Bactosomes at 6 concentrations. Samples were incubated for 10 minutes, after which the reaction was stopped and the samples analysed by LC-MS/MS Multiple Reaction Monitoring (MRM) for the presence/amount of substrate probe.
(§3) CYP450 enzymes (final protein 75 pmol/mL for CYP1A2; 12.5 pmol/mL for CYP2C19; and 25 pmol/mL for CYP2C9, 2D6 and 3A4), 0.1 M phosphate buffer pH 7.4, probe and test compound (final concentration 50, 15.8, 5, 1.58, 0.5 and 0.158 μM; diluted from 10 mM stock solution to give a final DMSO concentration of 1%) were pre-incubated at 37° C. for 5 minutes. The reaction was initiated by the addition of 20 μL of 10 mM NADPH in phosphate buffer. The final incubation volume was 200 μL. The following control inhibitors were used for each CYP450 inhibition assay: CYP1A2: α-naphthoflavone; CYP2C9: sulfaphenazole; CYP2C19: tranylcypromine; CYP2D6: quinidine; CYP3A4: ketoconazole.
(§4) Each compound was incubated for 10 minutes at 37° C. The reactions were stopped by the addition of methanol (final composition 1:1, aqueous: methanol). The incubation plates were shaken, chilled at […] for 2 hours, and centrifuged at 3500 rpm for 15 minutes at 4° C. to precipitate the protein.

The target of another series is CYP2D6 (Homo sapiens (Human), UniProt P10635). The description is as above. In kind it is in vitro ADME. Conditions: recombinant Bactosomes, 10 minutes. As to the method:
as §1, §2, §3, §4

The next series has as its target CYP3A4 (Homo sapiens (Human), UniProt P08684). The description is as above. The class given is in vitro ADME. Conditions: recombinant Bactosomes, 10 minutes. As to the method: as §1, §2, §3, §4
The target in the next series is CYP2C9 (Homo sapiens (Human), UniProt P11712). The series is described as above. In kind it is in vitro ADME. To be noted: recombinant Bactosomes, 10 minutes. As to the method:
as §1, §2, §3, §4

In the next series the target is CYP2C19 (Homo sapiens (Human), UniProt P33261). The series is described as above. In kind it is in vitro ADME. To be noted: recombinant Bactosomes, 10 minutes. As to the method:
as §1, §2, §3, §4

Series [1] can be described thus: Rodent Pharmacokinetics Studies. In kind it is in vivo, rat. Conditions: rats. An excerpt: Absorption and metabolic stability were studied using an in vivo pharmacokinetics assay.
[…] Test compounds were formulated in 0.5% carboxymethylcellulose (CMC)/0.1% Tween-80 for administration via the oral route, or in 5% DMSO/10% solutol in saline for administration via the intravenous route. For compound HMC-C-01-A the oral administration was formulated in 2% dimethylacetamide/20% hydroxypropyl-β-cyclodextrin in water. Animals were given free access to food throughout the study except for fasting overnight and until 2 hours post dose on the day of dosing.
Blood samples were taken from the retro-orbital plexus at the following time points and placed in microtubes containing 20% K2EDTA solution:
Oral Dosing: predose; 0.25, 0.5, 1, 2, 4, 6, 8, 12 and 24 hours post dose.
Blood samples were centrifuged to obtain plasma, which was transferred to a separate container and frozen at −20° C.
For analysis, samples were thawed at room temperature and prepared by protein precipitation with acetonitrile spiked with internal standard (500 ng/mL glipizide) in the ratio 1:4 with plasma.
The pharmacokinetic parameters for the test compounds were calculated by Phoenix WinNonlin version 8.0 (Certara, CA) using standard non-compartmental methods. Peak plasma concentrations (Cmax) and time of the peak plasma concentration (Tmax) were the observed values. The area under the plasma concentration-time curve (AUC) was determined by use of the linear trapezoidal rule up to the last measurable concentration (AUClast) and thereafter by extrapolation of the terminal elimination phase to infinity (AUCinf). The elimination phase half-life (t1/2) was calculated as 0.693/kel.

pIC50: −log10 of the molar value.

CYP2D6, sequence (P10635 whole entry): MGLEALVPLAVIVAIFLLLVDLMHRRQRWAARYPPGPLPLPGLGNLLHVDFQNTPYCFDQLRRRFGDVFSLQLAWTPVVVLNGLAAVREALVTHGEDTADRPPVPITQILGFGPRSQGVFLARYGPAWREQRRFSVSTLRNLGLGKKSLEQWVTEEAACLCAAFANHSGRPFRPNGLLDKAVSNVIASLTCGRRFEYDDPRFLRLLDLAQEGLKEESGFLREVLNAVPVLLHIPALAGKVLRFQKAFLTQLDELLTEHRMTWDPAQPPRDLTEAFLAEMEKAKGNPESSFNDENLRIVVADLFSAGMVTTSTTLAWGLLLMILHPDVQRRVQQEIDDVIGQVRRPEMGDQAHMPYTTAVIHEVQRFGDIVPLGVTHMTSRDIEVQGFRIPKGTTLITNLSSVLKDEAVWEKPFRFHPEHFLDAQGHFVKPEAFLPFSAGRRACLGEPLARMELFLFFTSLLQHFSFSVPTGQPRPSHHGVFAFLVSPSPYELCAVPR
CYP2C19, sequence (P33261 whole entry): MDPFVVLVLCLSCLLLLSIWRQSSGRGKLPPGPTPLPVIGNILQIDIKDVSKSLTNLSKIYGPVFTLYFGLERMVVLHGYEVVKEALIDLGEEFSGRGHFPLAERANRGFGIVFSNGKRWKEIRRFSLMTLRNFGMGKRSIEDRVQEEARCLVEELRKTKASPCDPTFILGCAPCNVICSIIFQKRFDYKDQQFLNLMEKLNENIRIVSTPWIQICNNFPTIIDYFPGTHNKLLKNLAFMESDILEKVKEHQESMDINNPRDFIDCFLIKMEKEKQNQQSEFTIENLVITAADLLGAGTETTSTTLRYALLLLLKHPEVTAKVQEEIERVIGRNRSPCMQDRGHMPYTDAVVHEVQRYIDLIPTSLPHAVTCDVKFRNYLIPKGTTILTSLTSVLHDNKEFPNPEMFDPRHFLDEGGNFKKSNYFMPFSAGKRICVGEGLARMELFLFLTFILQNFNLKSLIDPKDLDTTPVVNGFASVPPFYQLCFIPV
CYP1A2, sequence (P05177 whole entry, canonical isoform): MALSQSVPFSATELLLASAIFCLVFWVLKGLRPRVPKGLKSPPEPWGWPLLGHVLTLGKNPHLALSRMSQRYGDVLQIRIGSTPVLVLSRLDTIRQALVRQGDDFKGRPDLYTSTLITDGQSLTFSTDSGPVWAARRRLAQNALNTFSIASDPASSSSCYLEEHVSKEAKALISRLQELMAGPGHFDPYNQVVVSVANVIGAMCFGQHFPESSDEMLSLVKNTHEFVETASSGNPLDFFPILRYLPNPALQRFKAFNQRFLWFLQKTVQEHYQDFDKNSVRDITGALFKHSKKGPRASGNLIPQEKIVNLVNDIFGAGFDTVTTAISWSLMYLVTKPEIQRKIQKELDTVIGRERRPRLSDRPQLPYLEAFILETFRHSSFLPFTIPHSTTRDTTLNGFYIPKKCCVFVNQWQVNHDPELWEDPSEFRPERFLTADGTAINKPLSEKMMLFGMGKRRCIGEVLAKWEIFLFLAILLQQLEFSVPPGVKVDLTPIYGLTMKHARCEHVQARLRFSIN
CYP3A4, sequence (P08684 whole entry): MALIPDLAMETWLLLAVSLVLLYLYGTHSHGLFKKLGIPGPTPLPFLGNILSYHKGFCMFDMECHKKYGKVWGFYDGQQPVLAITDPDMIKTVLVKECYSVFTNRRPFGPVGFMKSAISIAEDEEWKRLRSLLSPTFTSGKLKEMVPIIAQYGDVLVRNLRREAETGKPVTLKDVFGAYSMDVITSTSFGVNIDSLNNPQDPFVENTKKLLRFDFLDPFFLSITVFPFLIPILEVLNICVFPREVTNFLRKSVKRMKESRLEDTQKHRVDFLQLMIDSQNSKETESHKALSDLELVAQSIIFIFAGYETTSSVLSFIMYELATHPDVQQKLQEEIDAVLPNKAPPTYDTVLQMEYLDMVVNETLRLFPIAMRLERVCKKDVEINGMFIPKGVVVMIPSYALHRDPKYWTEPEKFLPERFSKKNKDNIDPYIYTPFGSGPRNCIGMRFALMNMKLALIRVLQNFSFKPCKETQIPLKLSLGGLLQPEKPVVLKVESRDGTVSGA
CYP2C9, sequence (P11712 whole entry): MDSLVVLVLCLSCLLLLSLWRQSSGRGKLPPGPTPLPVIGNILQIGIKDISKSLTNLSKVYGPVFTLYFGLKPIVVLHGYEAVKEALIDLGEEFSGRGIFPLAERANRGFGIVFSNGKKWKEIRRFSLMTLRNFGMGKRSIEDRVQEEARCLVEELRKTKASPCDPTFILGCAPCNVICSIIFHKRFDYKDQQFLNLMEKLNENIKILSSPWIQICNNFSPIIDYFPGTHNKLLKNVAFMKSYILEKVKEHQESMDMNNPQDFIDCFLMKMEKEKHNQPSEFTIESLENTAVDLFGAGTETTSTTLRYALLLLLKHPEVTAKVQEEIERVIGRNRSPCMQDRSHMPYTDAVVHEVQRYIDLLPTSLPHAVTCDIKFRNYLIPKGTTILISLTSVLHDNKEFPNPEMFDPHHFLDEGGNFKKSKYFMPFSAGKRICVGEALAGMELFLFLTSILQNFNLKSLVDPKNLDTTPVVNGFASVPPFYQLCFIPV

The term pIC50 denotes −log10 of the IC50, conventionally taken in molar units. For `CC1(O)CCC(NS(=O)(=O)c2ccc(-c3ncc(Cl)cc3C#N)cc2)CC1` (stereo not drawn) [HMC-N-05-A, reference compound], the pIC50 at CYP1A2 was 4.44; at CYP2D6 it was below 4.30; on CYP3A4 it was below 4.30; on CYP2C9 it was 4.57; on CYP2C19, below 4.30. This compound displayed a T1/2 in series [1] (5% DMSO/10% solutol in saline both routes (footnote 1)) of 48 min. The “Bioavail, F” value in series [1] (5% DMSO/10% solutol in saline for both oral and intravenous routes (footnote 1)) worked out at 88%. In series [1] (intravenous, 5% DMSO/10% solutol in saline (footnote 1)), the “i.v. AUC” value is 891 ng/mL/min. Moreover, the “p.o. AUC” value in series [1] (oral, 5% DMSO/10% solutol in saline (footnote 1)) worked out at 3937 ng/mL/min.
